Structures can show the parent of a compound that is named as a salt.
Biological target: MAGL (Homo sapiens (Human), UniProt Q99685)
Assay: 2-AG assay (MAGL inhibitory activity, hydrolysis of 2-arachidonoylglycerol followed by mass spectrometry)
Format: biochemical
Settings: 50 pM MAGL protein, 15 min pre-incubation, 30 min incubation at RT
Summary of the method: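 Human MAGL (50 pM final) preincubated 15 min at RT with compound (3-fold dilutions, 12.5 μM to 0.8 pM final) in 50 mM TRIS, 1 mM EDTA, 0.01% Tween-20, 2.5% DMSO. Reaction with […] 2-AG ran 30 min at RT, then was quenched with acetonitrile containing d8-arachidonic acid. Arachidonic acid measured by SPE–triple-quad MS (negative ESI), activity from the arachidonic/d8-arachidonic acid intensity ratio.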

Chain of MAGL (Q99685 whole entry, species assumed): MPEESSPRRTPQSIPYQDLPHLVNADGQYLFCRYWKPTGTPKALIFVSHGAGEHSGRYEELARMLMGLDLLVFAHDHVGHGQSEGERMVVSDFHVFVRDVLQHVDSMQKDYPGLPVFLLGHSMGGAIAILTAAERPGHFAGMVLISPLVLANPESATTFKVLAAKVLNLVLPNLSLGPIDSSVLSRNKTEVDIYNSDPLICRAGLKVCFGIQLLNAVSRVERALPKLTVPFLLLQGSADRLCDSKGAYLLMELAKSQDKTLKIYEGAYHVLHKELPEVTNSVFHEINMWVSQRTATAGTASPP

Compound | IC50 [nM]
C[C@@H]1c2nn(C)c(-c3cc(F)c(F)c(F)c3)c2CCN1C(=O)c1cc(F)cc(-c2c[nH]c(C#N)c2)c1Cl [Example 93, 4-[2-chloro-3-[(7R)-2,7-dimethyl-3-(3,4,5-trifluorophenyl)-5,7-dihydro-4H-pyrazolo[3,4-c]pyridine-6-carbonyl]-5-fluoro-phenyl]-1H-pyrrole-2-carbonitrile] | 734
C[C@H]1c2nn(C)c(-c3cc(Cl)cc(C4(NS(C)(=O)=O)CC4)c3)c2CCN1C(=O)c1cc(F)cc(-c2cn[nH]c2)c1F [Example 94, N-[1-[3-chloro-5-[(7S)-6-[2,5-difluoro-3-(1H-pyrazol-4-yl)benzoyl]-2,7-dimethyl-5,7-dihydro-4H-pyrazolo[3,4-c]pyridin-3-yl]phenyl]cyclopropyl]methanesulfonamide] | 472
C[C@@H]1c2nn(C)c(-c3cncc(C(F)(F)F)n3)c2CCN1C(=O)c1ncn(-c2ccc[nH]c2=O)n1 [Example 96, 3-[3-[(7R)-2,7-dimethyl-3-[6-(trifluoromethyl)pyrazin-2-yl]-5,7-dihydro-4H-pyrazolo[3,4-c]pyridine-6-carbonyl]-1,2,4-triazol-1-yl]-1H-pyridin-2-one] | 1260
C[C@@H]1c2nn(C)c(-c3cc(F)cc(F)c3)c2CCN1C(=O)c1cc(F)cc(C2=CC(Cl)C(=O)N=C2)c1Cl (stereo partly drawn) [Example 99, 3-chloro-5-[2-chloro-3-[(7R)-3-(3,5-difluorophenyl)-2,7-dimethyl-5,7-dihydro-4H-pyrazolo[3,4-c]pyridine-6-carbonyl]-5-fluoro-phenyl]-3H-pyridin-2-one] | 767
C[C@H]1c2nn(C)c(-c3cc(F)cc(F)c3)c2CCN1C(=O)c1ncn(-c2cc(Cl)cnc2O)n1 [Example 100, [1-(5-chloro-2-hydroxy-3-pyridyl)-1,2,4-triazol-3-yl]-[(7S)-3-(3,5-difluorophenyl)-2,7-dimethyl-5,7-dihydro-4H-pyrazolo[3,4-c]pyridin-6-yl]methanone] | 31.9
C[C@@H]1c2nn(C)c(-c3cc(F)cc(F)c3)c2CCN1C(=O)c1ncn(-c2cc(Cl)cnc2O)n1 [Example 101, [1-(5-chloro-2-hydroxy-3-pyridyl)-1,2,4-triazol-3-yl]-[(7R)-3-(3,5-difluorophenyl)-2,7-dimethyl-5,7-dihydro-4H-pyrazolo[3,4-c]pyridin-6-yl]methanone] | 3020
C[C@@H]1c2nn(C)c(-c3cc(F)cc(F)c3)c2CCN1C(=O)c1cc(F)cc(CCc2cn[nH]c2)c1Cl [Example 103, [2-chloro-5-fluoro-3-[2-(1H-pyrazol-4-yl)ethyl]phenyl]-[(7R)-3-(3,5-difluorophenyl)-2,7-dimethyl-5,7-dihydro-4H-pyrazolo[3,4-c]pyridin-6-yl]methanone] | 440
C[C@H]1c2nn(C)c(-c3cc(F)cc(F)c3)c2CCN1C(=O)c1cc(F)cc(CCc2c[nH]nn2)c1Cl [Example 104, [2-chloro-5-fluoro-3-[2-(JH-triazol-4-yl)ethyl]phenyl]-[(7S)-3-(3,5-difluorophenyl)-2,7-dimethyl-5,7-dihydro-4H-pyrazolo[3,4-c]pyridin-6-yl]methanone] | 42.4
C[C@H]1c2nn(C)c(-c3cc(F)cc(F)c3)c2CCN1C(=O)c1cc(F)cc(N2CC3(CCN3)C2)c1Cl [Example 111, [2-chloro-3-(1,6-diazaspiro[3.3]heptan-6-yl)-5-fluoro-phenyl]-[(7S)-3-(3,5-difluorophenyl)-2,7-dimethyl-5,7-dihydro-4H-pyrazolo[3,4-c]pyridin-6-yl]methanone;2,2,2-trifluoroacetic acid] | 51.6
C[C@H]1c2nn(C)c(-c3cc(F)cc(F)c3)c2CCN1C(=O)c1ncn(-c2ccnc(O)c2)n1 [Example 112, [(7S)-3-(3,5-difluorophenyl)-2,7-dimethyl-5,7-dihydro-4H-pyrazolo[3,4-c]pyridin-6-yl]-[1-(2-hydroxy-4-pyridyl)-1,2,4-triazol-3-yl]methanone] | 1660
COc1cccc(C(=O)N2CCn3c(-c4cccc(Cl)c4)nnc3[C@@H]2C)c1Cl [Example 116, (2-chloro-3-methoxy-phenyl)-[(5S)-9-(3-chlorophenyl)-5-methyl-1,4,7,8-tetrazabicyclo[4.3.0]nona-1(9),6-dien-4-yl]methanone] | 2380

These reach a lower IC50. Values come first.

IC50 [nM] | Compound
16.9 | COc1cccc(C(=O)N2CCc3c(nn(C)c3-c3cc(Cl)cc(CC(C)(C)O)c3)[C@@H]2C)c1Cl [Example 95, [(7S)-3-[3-chloro-5-(2-hydroxy-2-methyl-propyl)phenyl]-2,7-dimethyl-5,7-dihydro-4H-pyrazolo[3,4-c]pyridin-6-yl]-(2-chloro-3-methoxy-phenyl)methanone]
12.4 | CC1c2nn(C)c(-c3cc(F)cc(F)c3)c2CCN1C(=O)c1cc(F)cc(CNC2CNC(=O)C2)c1Cl (stereo not drawn) [Example 106, 4-[[2-chloro-3-[3-(3,5-difluorophenyl)-2,7-dimethyl-5,7-dihydro-4H-pyrazolo[3,4-c]pyridine-6-carbonyl]-5-fluoro-phenyl]methylamino]pyrrolidin-2-one;hydrochloride]
8.44 | CC1c2nn(C)c(-c3cc(F)cc(F)c3)c2CCN1C(=O)c1cc(F)cc(C2=CC(Cl)C(=O)N=C2)c1Cl (stereo not drawn) [Example 97, 3-chloro-5-[2-chloro-3-[3-(3,5-difluorophenyl)-2,7-dimethyl-5,7-dihydro-4H-pyrazolo[3,4-c]pyridine-6-carbonyl]-5-fluoro-phenyl]-3H-pyridin-2-one]
5.97 | C[C@H]1c2nn(C)c(-c3cc(F)cc(F)c3)c2CCN1C(=O)c1cc(F)cc(C2=CC(Cl)C(=O)N=C2)c1Cl (stereo partly drawn) [Example 98, 3-chloro-5-[2-chloro-3-[(7S)-3-(3,5-difluorophenyl)-2,7-dimethyl-5,7-dihydro-4H-pyrazolo[3,4-c]pyridine-6-carbonyl]-5-fluoro-phenyl]-3H-pyridin-2-one]
4.88 | C[C@H]1c2nn(C)c(-c3cc(F)cc(F)c3)c2CCN1C(=O)c1cc(F)cc(OC[C@H]2CNC(=O)N2)c1Cl [Example 115, (4R)-4-[[2-chloro-3-[(7S)-3-(3,5-difluorophenyl)-2,7-dimethyl-5,7-dihydro-4H-pyrazolo[3,4-c]pyridine-6-carbonyl]-5-fluoro-phenoxy]methyl]imidazolidin-2-one]
4.35 | C[C@H]1c2nn(C)c(-c3cc(F)c(F)c(F)c3)c2CCN1C(=O)c1cc(F)cc(-c2c[nH]c(C#N)c2)c1Cl [Example 92, 4-[2-chloro-3-[(7S)-2,7-dimethyl-3-(3,4,5-trifluorophenyl)-5,7-dihydro-4H-pyrazolo[3,4-c]pyridine-6-carbonyl]-5-fluoro-phenyl]-1H-pyrrole-2-carbonitrile]
2.09 | C[C@H]1c2nn(C)c(-c3cc(F)cc(F)c3)c2CCN1C(=O)c1cccc(OCC2CNC(=O)O2)c1Cl (stereo partly drawn) [Example 110, 5-[[2-chloro-3-[(7S)-3-(3,5-difluorophenyl)-2,7-dimethyl-5,7-dihydro-4H-pyrazolo[3,4-c]pyridine-6-carbonyl]phenoxy]methyl]oxazolidin-2-one]
1.53 | C[C@H]1c2nn(C)c(-c3cc(F)cc(F)c3)c2CCN1C(=O)c1cc(F)cc(CCc2cn[nH]c2)c1Cl [Example 102, [2-chloro-5-fluoro-3-[2-(JH-pyrazol-4-yl)ethyl]phenyl]-[(7S)-3-(3,5-difluorophenyl)-2,7-dimethyl-5,7-dihydro-4H-pyrazolo[3,4-c]pyridin-6-yl]methanone]
1.01 | C[C@@H]1c2nn(C)c(-c3cc(F)cc(F)c3)c2CCN1C(=O)c1cc(F)cc(CCc2c[nH]nn2)c1Cl [Example 105, [2-chloro-5-fluoro-3-[2-(JH-triazol-4-yl)ethyl]phenyl]-[(7R)-3-(3,5-difluorophenyl)-2,7-dimethyl-5,7-dihydro-4H-pyrazolo[3,4-c]pyridin-6-yl]methanone]
0.61 | C[C@H]1c2nn(C)c(-c3cc(F)cc(F)c3)c2CCN1C(=O)c1cc(Cl)cc(OCC2CNC(=O)O2)c1Cl (stereo partly drawn) [Example 107, 5-[[2,5-dichloro-3-[(7S)-3-(3,5-difluorophenyl)-2,7-dimethyl-5,7-dihydro-4H-pyrazolo[3,4-c]pyridine-6-carbonyl]phenoxy]methyl]oxazolidin-2-one]

Source: patent US20250059185A1 (Hoffmann-La Roche Inc., priority 2021, published 2025)
